A short description of series [1]: Cytotoxicity against human HUVEC cells. The class given is toxicity, cell-based.
The test system of series [2] is NCI-H1975. The series is described as follows: Inhibition of cell invasion in human NCI-H1975 cells by transwell assay. The class given is functional, cell-based.
The target of series [3] is T1, Epidermal growth factor receptor (Homo sapiens, UniProt P00533). As to the kind of experiment: Inhibition of EGFR in human NCI-H1975 cells assessed as reduction in AKT phosphorylation incubated for 24 hrs by Western blot analysis. The class given is cell-based. Conditions: dose <= 50.0 nM.
Series [4] relates to BaF3. As to the kind of experiment: Inhibition of colony formation in mouse BaF3 cells harboring EGFR L858R/T790M/C797S mutant at 5 to 10 nM by crystal violet staining based analysis. Conditions: dose 5-10 nM. The class given is functional, cell-based.
Series [5] relates to NCI-H1975. As to the kind of experiment: Induction of apoptosis in human NCI-H1975 cells assessed as increase in green fluorescence at 10 to 25 nM by TUNNEL method. The class given is functional, cell-based. Conditions: dose 10-25 nM.
Series [6] has as its system NCI-H1975. As to the kind of experiment: Induction of apoptosis in human NCI-H1975 cells assessed as early apoptotic cells at 10 nM incubated for 24 hrs by Annexin V-FITC/PI staining based flow cytometry (reference value: 2.18 %). The class given is functional.
Series [7] is described as follows: Toxicity in nude mouse allografted with mouse BaF3 cells assessed as damage in heart at 50 mg/kg, po for 7 days by H and E staining based analysis. The class given is organism-based. Conditions: in vivo, 168 h, time 7 day.
Series [8] can be described thus: Toxicity in nude mouse allografted with mouse BaF3 cells assessed as animal health at 50 mg/kg, po measured for 7 days. Conditions: in vivo, 168 h, time 7 day. The class given is organism-based.
The test system of series [9] is NCI-H1975. As to the kind of experiment: Induction of apoptosis in human NCI-H1975 cells assessed as late apoptotic cells at 10 nM incubated for 24 hrs by Annexin V-FITC/PI staining based flow cytometry (reference value: 3.55 %). The class given is functional.
In series [10] the test system is BaF3. The series is described as follows: Inhibition of cell migration in mouse BaF3 cells harboring EGFR L858R/T790M/C797S mutant by transwell assay. The class given is functional, cell-based.
A short description of series [11]: Toxicity in nude mouse allografted with mouse BaF3 cells assessed as damage in spleen at 50 mg/kg, po for 7 days by H and E staining based analysis. The class given is organism-based. Conditions: in vivo, 168 h, time 7 day.
Series [12] relates to NCI-H1975. The series is described as follows: Inhibition of neovascularization in human NCI-H1975 cells xenografted in nude mouse at 50 mg/kg, po for 7 days by IHC analysis. Conditions: time 7.0 day. The class given is functional, organism-based.
For series [13], the target named is T1, Epidermal growth factor receptor. As to the kind of experiment: Inhibition of EGFR in human NCI-H1975 cells assessed as reduction in ERK phosphorylation incubated for 24 hrs by Western blot analysis. Conditions: dose <= 50.0 nM. The class given is cell-based.
Series [14] addresses Platelet-derived growth factor receptor beta (Homo sapiens) (UniProt P09619). The series is described as follows: Binding affinity to PDGFR (unknown origin) at 100 nM by kinase profiling analysis.
A short description of series [15]: Toxicity in nude mouse allografted with mouse BaF3 cells assessed as lesion in lung at 50 mg/kg, po for 7 days by H and E staining based analysis. The class given is organism-based. Conditions: in vivo, 168 h, time 7 day.
Series [16] concerns NCI-H1975. As to the kind of experiment: Induction of apoptosis in human NCI-H1975 cells assessed as viable cells at 10 nM incubated for 24 hrs by Annexin V-FITC/PI staining based flow cytometry (reference value: 91.38 %). Conditions: read-out: Activity. The class given is functional.
Series [17] concerns NCI-H1975. The series is described as follows: Inhibition of colony formation in human NCI-H1975 cells at 5 to 10 nM by crystal violet staining based analysis. The class given is functional, cell-based. Conditions: dose 5-10 nM.
Series [18] is described as follows: Toxicity in nude mouse allografted with mouse BaF3 cells assessed as lesion in kidney at 50 mg/kg, po for 7 days by H and E staining based analysis. The class given is organism-based. Conditions: in vivo, 168 h, time 7 day.
For series [19], the target named is Epidermal growth factor receptor (Homo sapiens, UniProt P00533, C797S/L858R/T790M). The series is described as follows: Inhibition of EGFR C797S/T790M/L858R mutant (unknown origin).
The species entered for a further series is Homo sapiens. The series is described as follows: Binding affinity to FGFR (unknown origin) at 100 nM by kinase profiling analysis.
Series [20] has as its system BaF3. As to the kind of experiment: Induction of apoptosis in mouse BaF3 cells harboring EGFR L858R/T790M/C797S mutant assessed as viable cells at 10 nM incubated for 24 hrs by Annexin V-FITC/PI staining based flow cytometry (reference value: 99.77 %). The class given is functional. Conditions: read-out: Activity.
Series [21] can be described thus: Toxicity in nude mouse xenografted with human NCI-H1975 cells assessed as body weight loss at 50 mg/kg, po measured for 7 days. Conditions: in vivo, 168 h, time 7 day. The class given is organism-based.
In series [22] the test system is NCI-H1975. The series is described as follows: Induction of apoptosis in human NCI-H1975 cells assessed as necrotic cells at 10 nM incubated for 24 hrs by Annexin V-FITC/PI staining based flow cytometry (reference value: 2.89 %). The class given is functional.

Calls of active or inactive are those of the source. No cut-off for these calls is given here.

T1 sequence (P00533 whole entry): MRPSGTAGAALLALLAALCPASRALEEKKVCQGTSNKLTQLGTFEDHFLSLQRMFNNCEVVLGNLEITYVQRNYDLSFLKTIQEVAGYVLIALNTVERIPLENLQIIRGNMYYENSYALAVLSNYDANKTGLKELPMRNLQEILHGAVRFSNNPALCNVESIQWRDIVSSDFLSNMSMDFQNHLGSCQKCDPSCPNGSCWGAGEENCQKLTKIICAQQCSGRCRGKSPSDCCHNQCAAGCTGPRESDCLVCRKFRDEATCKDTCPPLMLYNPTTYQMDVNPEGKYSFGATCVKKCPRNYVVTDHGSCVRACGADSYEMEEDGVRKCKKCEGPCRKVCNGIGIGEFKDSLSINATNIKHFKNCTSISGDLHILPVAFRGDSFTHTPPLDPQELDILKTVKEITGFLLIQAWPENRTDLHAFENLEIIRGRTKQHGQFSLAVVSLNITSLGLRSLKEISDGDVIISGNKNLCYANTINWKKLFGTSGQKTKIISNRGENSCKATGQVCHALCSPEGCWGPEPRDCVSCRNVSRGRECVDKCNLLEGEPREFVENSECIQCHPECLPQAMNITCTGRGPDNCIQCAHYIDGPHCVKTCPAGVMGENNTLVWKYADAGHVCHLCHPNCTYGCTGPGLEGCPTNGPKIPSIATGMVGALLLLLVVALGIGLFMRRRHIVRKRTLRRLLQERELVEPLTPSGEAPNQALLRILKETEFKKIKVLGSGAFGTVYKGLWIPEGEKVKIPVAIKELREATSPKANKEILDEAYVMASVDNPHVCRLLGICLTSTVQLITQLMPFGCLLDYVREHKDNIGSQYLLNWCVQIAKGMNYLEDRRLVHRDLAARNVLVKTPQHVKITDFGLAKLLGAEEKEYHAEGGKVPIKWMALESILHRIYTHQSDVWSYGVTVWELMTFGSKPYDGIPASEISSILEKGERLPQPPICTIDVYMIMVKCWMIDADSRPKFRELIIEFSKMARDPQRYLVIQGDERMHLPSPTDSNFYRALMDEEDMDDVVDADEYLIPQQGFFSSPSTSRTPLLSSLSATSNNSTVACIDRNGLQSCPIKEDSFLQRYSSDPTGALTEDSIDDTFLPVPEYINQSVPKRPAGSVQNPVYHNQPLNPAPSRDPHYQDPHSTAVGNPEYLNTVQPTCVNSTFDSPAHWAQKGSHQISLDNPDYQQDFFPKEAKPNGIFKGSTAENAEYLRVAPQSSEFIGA
Epidermal growth factor receptor (Homo sapiens, UniProt P00533, C797S/L858R/T790M), sequence (P00533 25-1210 T790M/C797S/L858R limits assumed): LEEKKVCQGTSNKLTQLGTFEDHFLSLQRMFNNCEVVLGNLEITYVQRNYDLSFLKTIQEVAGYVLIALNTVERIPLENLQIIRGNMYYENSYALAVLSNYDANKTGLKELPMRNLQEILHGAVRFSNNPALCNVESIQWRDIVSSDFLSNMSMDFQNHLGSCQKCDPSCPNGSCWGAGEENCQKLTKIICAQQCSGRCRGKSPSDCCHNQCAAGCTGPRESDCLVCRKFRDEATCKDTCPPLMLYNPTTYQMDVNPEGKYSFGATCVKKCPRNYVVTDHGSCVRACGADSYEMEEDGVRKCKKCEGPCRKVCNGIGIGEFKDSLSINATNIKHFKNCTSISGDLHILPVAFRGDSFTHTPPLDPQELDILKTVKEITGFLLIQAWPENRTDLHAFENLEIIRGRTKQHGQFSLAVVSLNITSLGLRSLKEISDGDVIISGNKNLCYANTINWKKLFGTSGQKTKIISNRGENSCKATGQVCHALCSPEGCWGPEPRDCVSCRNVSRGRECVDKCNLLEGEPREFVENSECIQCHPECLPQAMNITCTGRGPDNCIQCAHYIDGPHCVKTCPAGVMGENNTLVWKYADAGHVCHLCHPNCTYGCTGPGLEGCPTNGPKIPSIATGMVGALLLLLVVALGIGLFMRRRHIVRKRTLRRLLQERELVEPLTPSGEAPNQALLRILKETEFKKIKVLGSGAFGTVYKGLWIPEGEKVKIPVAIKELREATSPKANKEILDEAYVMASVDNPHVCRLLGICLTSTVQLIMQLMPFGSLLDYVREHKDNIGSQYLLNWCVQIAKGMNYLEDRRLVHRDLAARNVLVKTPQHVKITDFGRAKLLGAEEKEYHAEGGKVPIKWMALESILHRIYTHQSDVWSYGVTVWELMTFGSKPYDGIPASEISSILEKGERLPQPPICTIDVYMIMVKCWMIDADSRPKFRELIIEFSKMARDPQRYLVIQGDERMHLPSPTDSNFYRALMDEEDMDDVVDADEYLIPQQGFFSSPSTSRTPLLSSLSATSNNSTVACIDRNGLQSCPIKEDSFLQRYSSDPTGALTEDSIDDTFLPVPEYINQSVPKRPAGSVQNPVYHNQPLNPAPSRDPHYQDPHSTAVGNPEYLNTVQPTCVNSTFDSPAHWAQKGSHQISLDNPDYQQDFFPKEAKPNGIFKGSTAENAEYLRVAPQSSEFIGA
Platelet-derived growth factor receptor beta (Homo sapiens), sequence (P09619 whole entry): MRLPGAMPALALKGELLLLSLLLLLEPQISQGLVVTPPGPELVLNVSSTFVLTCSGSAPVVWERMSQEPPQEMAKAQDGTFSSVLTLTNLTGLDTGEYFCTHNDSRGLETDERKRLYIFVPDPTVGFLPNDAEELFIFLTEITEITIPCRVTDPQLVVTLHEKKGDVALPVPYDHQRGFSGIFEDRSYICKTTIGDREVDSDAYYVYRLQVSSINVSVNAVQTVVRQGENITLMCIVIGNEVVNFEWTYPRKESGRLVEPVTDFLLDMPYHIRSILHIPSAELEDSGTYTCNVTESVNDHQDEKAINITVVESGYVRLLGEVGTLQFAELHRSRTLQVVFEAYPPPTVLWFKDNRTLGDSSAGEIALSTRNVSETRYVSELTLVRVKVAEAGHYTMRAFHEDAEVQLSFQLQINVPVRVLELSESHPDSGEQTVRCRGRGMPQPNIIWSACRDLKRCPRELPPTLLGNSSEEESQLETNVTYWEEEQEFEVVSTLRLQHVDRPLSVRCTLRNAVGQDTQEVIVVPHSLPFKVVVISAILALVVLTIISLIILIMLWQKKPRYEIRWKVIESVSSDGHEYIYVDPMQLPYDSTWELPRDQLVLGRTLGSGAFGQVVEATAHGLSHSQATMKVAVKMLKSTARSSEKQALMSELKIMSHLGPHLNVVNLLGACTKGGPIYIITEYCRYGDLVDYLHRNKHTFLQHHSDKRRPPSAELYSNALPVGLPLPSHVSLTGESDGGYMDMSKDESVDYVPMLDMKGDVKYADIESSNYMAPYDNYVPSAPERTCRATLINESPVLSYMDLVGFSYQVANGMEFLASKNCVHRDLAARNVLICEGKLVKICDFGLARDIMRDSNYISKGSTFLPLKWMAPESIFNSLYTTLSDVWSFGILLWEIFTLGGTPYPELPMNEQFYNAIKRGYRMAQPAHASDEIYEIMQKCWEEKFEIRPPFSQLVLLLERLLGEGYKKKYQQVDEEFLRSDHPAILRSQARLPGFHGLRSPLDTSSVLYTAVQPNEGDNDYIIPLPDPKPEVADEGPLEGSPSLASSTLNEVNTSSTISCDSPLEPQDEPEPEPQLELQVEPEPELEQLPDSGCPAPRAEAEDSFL

On to `CN1CCCN(c2ccc(Nc3ncc(Br)c(Nc4ccccc4NS(=O)(=O)C4CC4)n3)cc2)CC1`, for which the results for the IC50 in series [1] and in series [19] were 2520 nM and 0.61 nM, respectively. Besides, the inhibition result in the series on NCI-H1975 [2], in the series with BaF3 [4], in the series with BaF3 [10], in the series with NCI-H1975 [12] and with NCI-H1975 [17] was “Active” each time. Besides, the inhibition result in [3] and in series [13] was “Dose-Dependent Effect” in each case. In addition, the outcome (with NCI-H1975 [5]; in series [14]; in the series filed under Homo sapiens) was Active. For the same compound, the Activity in the series on NCI-H1975 [6] was 13.31%; in series [7] it was “Non-Toxic”; in [8], “Non-Toxic”; with NCI-H1975 [9], 6.42%; in series [11], “Non-Toxic”; in series [15], “Non-Toxic”. The Activity entry in series [18] is “Non-Toxic”; in series [21] it was “Non-Toxic”; in the series on NCI-H1975 [22], 2.98%. Further, the viability at 0.01 µM in the series on NCI-H1975 [16] is 77.3%; with BaF3 [20] it was 20.7%.

Source of the values: ChEMBL document CHEMBL5579839, “Discovery of new cyclopropane sulfonamide derivatives as EGFR inhibitors to overcome C797S-mediated resistance and EGFR double mutation” (Eur J Med Chem, 2024).
